{"source": "EPA's ToxValDB 9.5", "key": {"[1]": {"system": "Rattus norvegicus", "settings": "oral, M/F"}, "[2]": {"system": "Rattus norvegicus", "settings": "M/F"}, "[3]": {"system": "Rattus norvegicus", "settings": "oral"}, "[4]": {"system": "Homo sapiens", "settings": "clinical, oral, capsule"}, "[5]": {"system": "Canidae", "settings": "repeat dose other; inhalation; Dog Other"}, "[6]": {"system": "Cavia sp.", "settings": "repeat dose other; inhalation"}, "[7]": {"system": "Mus musculus"}, "[8]": {"system": "Rattus norvegicus", "settings": "for LD50: acute"}, "[9]": {"system": "Homo sapiens", "settings": "clinical, oral"}, "[10]": {"system": "Anas platyrhynchos", "settings": "oral"}, "[11]": {"system": "Rattus norvegicus", "settings": "oral", "remark": "listed apart in the source"}, "[12]": {"system": "Rattus norvegicus", "settings": "subchronic; duration: 12 weeks; oral; diet; Kidney: Toxicity + Liver: Toxicity"}, "[13]": {"system": "Homo sapiens", "settings": "clinical; oral; diet; M; rbc che depression"}, "[14]": {"system": "Homo sapiens", "settings": "clinical; duration: 56 days; oral; capsule; M; neurological"}, "[15]": {"system": "Oryctolagus sp.", "settings": "acute; duration: 1 days; inhalation; M; New Zealand; neurological"}, "[16]": {"system": "Cavia porcellus", "settings": "repeat dose other; oral; Guinea Pig"}, "[17]": {"system": "Gallus gallus", "settings": "repeat dose other; oral"}, "[18]": {"system": "Rattus norvegicus", "experiment": "LD0; higher = less toxic", "settings": "acute"}, "[19]": {"system": "Canidae", "settings": "subchronic; duration: 7 weeks; oral; gavage; M/F; Beagle"}, "[20]": {"system": "Canidae", "settings": "chronic; duration: 26 weeks; oral; capsule; M/F; Beagle; gastrointestinal"}, "[21]": {"system": "Canidae", "settings": "duration: 26 weeks, oral, capsule, M/F, Beagle, Liquid feces"}, "[22]": {"system": "Rattus norvegicus", "settings": "duration: 7 days, oral, M, Reduced proportion of time spent in open field central zones, increased immobility time in the open field, reduced proportion of time spent …"}, "[23]": {"system": "Oryctolagus sp.", "settings": "developmental; duration: 12 days; oral; gavage; F; New Zealand; developmental"}, "[24]": {"settings": "short-term, duration: 28 days, oral, diet, Fischer 344"}, "[25]": {"settings": "reproduction developmental, M/F, Reduced body weight gain preceding pregnancy reduced body weight gain in offspring during weaning period"}}, "note": "Where “and” joins values, the source holds several entries; their conditions need not be identical. Equal entries are not always repeated.", "data": [{"compound": "CCOP(=S)(OCC)Oc1nc(Cl)c(Cl)cc1Cl", "note": "[Chlorpyrifos]", "values": [{"measurement": "NOEL", "setting": "[1]; short-term, duration: 28 days, gavage, Wistar, Body Weight Changes: Weight gain decrease + Food Consumption: decrease + Blood Chemistry: T-Cho decrease TG decrease ALP increase Ch E …", "value": 0.1, "unit": "mg/kg-day"}, {"measurement": "NOAEL", "setting": "[2]; chronic, duration: 2 years, oral, diet, Sherman Wistar, neurological", "value": 0.1, "unit": "mg/kg-day"}, {"measurement": "NOEL", "setting": "[3]; Hershberger, duration: 10 days, gavage, Sprague-Dawley, inactive + Negative + Negative + anti-androgenic + negative", "value": 2, "unit": "mg/kg-day"}, {"measurement": "LEL", "setting": "[3]; uterotrophic, duration: 56 days, Active", "value": 0.1, "unit": "mg/kg-day"}, {"measurement": "NOEL", "setting": "[4]; duration: 20 days, Blood: Decreased cholinesterase activity", "value": 0.03, "unit": "mg/kg-day"}]}, {"compound": "C#C", "note": "[Ethyne]", "values": [{"measurement": "NOAEL", "setting": "[5]", "value": 852000, "unit": "mg/m3"}, {"measurement": "NOAEL", "setting": "[6]", "value": 852000, "unit": "mg/m3"}, {"measurement": "NOAEL", "setting": "[7]; repeat dose other, inhalation", "value": 852000, "unit": "mg/m3"}, {"measurement": "NOAEL", "setting": "[8]; repeat dose other, inhalation", "value": 852000, "unit": "mg/m3"}]}, {"compound": "Oc1ccc(O)cc1", "note": "[Hydroquinone]", "values": [{"measurement": "NOEL", "setting": "[1]; subchronic, duration: 13 weeks, gavage, Fischer 344, Deaths + Clinical Observation: Tremors Convulsions + Body Weight Changes: decrease + Absolute Organ Weight: Liver increase + Relative Organ …", "value": 25, "unit": "mg/kg-day"}, {"measurement": "NOAEL", "setting": "[9]; duration: 5 months, M/F, Hematologic, Urinary", "value": 4.3, "unit": "mg/kg-day"}]}, {"compound": "ClC1C(Cl)C(Cl)C(Cl)C(Cl)C1Cl", "note": "(stereo not given) [Lindane]", "values": [{"measurement": "LOAEL", "setting": "[10]", "value": 20, "unit": "mg/kg-day"}, {"measurement": "NOAEL", "setting": "[10]", "value": 2, "unit": "mg/kg-day"}, {"measurement": "NOAEL", "setting": "[11]; subchronic, F, liver and kidney toxicity", "value": 0.33, "unit": "mg/kg-day"}, {"measurement": "LOAEL", "setting": "[11]; subchronic, M, liver and kidney toxicity", "value": 1.55, "unit": "mg/kg-day"}, {"measurement": "NOAEL", "setting": "[2]; developmental, duration: 13 weeks, oral, drinking water, Sprague-Dawley, developmental", "value": "7.6e-05", "unit": "mg/kg-day"}, {"measurement": "LOAEL", "setting": "[2]; developmental, duration: 1 days, oral, gavage, Bor:spf, developmental", "value": 1, "unit": "mg/kg-day"}, {"measurement": "NOAEL", "setting": "[12]", "value": 0.33, "unit": "mg/kg-day"}]}, {"compound": "CCOC(=O)CC(SP(=S)(OC)OC)C(=O)OCC", "note": "(stereo not given) [Malathion]", "values": [{"measurement": "LEL", "setting": "[13]", "value": 0.34, "unit": "mg/kg-day"}, {"measurement": "NOEL", "setting": "[13]", "value": 0.23, "unit": "mg/kg-day"}, {"measurement": "NOAEL", "setting": "[14]", "value": 0.23, "unit": "mg/kg-day"}, {"measurement": "NOAEL", "setting": "[15]", "value": 65, "unit": "mg/m3"}, {"measurement": "NOAEL", "setting": "[2]; chronic, duration: 2 years, oral, diet, Fischer-344, neurological", "value": 2, "unit": "mg/kg-day"}, {"measurement": "LOAEL", "setting": "[2]; subchronic, duration: 13 weeks, inhalation, whole body, Sprague-Dawley, respiratory", "value": 100, "unit": "mg/m3"}, {"measurement": "NOEL", "setting": "[4]; duration: 47 days, Blood: Hematological effects", "value": 0.23, "unit": "mg/kg-day"}]}, {"compound": "O=[N+]([O-])[O-].[K+]", "note": "[Potassium nitrate]", "values": [{"measurement": "LOAEL", "setting": "[16]", "value": 1130, "unit": "mg/kg-day"}, {"measurement": "NOAEL", "setting": "[16]", "value": 507, "unit": "mg/kg-day"}]}, {"compound": "[Cl-].[Rb+]", "note": "[Rubidium chloride (RbCl)]", "values": [{"measurement": "LOAEL", "setting": "[9]; duration: 3 weeks, capsule, F", "value": 5.3, "unit": "mg/kg-day"}]}, {"compound": "O.O.[Na+].[Na+].[O]=[Mo](=[O])([O-])[O-]", "note": "[Sodium molybdate (Na2MoO4) dihydrate]", "values": [{"measurement": "LOAEL", "setting": "[17]", "value": 35.3, "unit": "mg/kg-day"}, {"measurement": "NOAEL", "setting": "[17]", "value": 3.5, "unit": "mg/kg-day"}]}, {"compound": "C[S-].[Na+]", "note": "[Sodium thiomethoxide]", "values": [{"measurement": "LD50", "setting": "[8]; oral, Sprague-Dawley", "value": "≥ 75 mg/kg and ≤ 161 mg/kg"}, {"measurement": "LD50", "setting": "[8]; oral, gavage, Sprague-Dawley", "value": "109 mg/kg and ≥ 84 mg/kg and ≤ 146 mg/kg"}, {"measurement": "LD0", "setting": "[18]; dermal, semiocclusive, Sprague-Dawley", "value": "≥ 400", "unit": "mg/kg"}]}, {"compound": "O=P(c1ccccc1)(c1ccccc1)c1ccccc1", "note": "[Triphenylphosphine oxide]", "values": [{"measurement": "LOAEL", "setting": "[19]", "value": 50, "unit": "mg/kg-day"}]}, {"compound": "CCCCC(CC)COC(=O)c1ccc(C(=O)OCC(CC)CCCC)c(C(=O)OCC(CC)CCCC)c1", "note": "(stereo not given) [Tris(2-ethylhexyl) trimellitate]", "values": [{"measurement": "LD50", "setting": "[7]; acute, oral, gavage", "value": "> 3200", "unit": "mg/kg"}, {"measurement": "LD50", "setting": "[8]; oral, gavage", "value": "> 3200", "unit": "mg/kg"}, {"measurement": "LD50", "setting": "[8]; oral, gavage, Crj:CD", "value": "> 2000", "unit": "mg/kg"}, {"measurement": "NOAEL", "setting": "[8]; reproduction developmental, duration: 20 days, oral, gavage, Crj:CD, generation: F1", "value": 1000, "unit": "mg/kg-day"}, {"measurement": "NOAEL", "setting": "[8]; reproduction developmental, duration: 20 days, oral, gavage, F, Crj:CD", "value": 1000, "unit": "mg/kg-day"}, {"measurement": "NOAEL", "setting": "[8]; reproduction developmental, duration: 20 days, oral, gavage, M, Crj:CD", "value": 100, "unit": "mg/kg-day"}, {"measurement": "LOAEL", "setting": "[8]; [24]", "value": 650, "unit": "mg/kg-day"}, {"measurement": "NOAEL", "setting": "[8]; [24]", "value": 184, "unit": "mg/kg-day"}, {"measurement": "NOAEL", "setting": "[8]; short-term, duration: 28 days, oral, gavage, F, Crj:CD", "value": "> 1000", "unit": "mg/kg-day"}, {"measurement": "NOAEL", "setting": "[8]; short-term, duration: 28 days, oral, gavage, M, Crj:CD", "value": "> 1000", "unit": "mg/kg-day"}, {"measurement": "LD0", "setting": "[18]; inhalation, Crj:CD", "value": 2600, "unit": "mg/m3"}]}, {"compound": "CC1(C)C(C=C(Cl)C(F)(F)F)C1C(=O)OC(C#N)c1cccc(Oc2ccccc2)c1", "note": "(stereo not drawn) [alpha-Cyhalothrin]", "values": [{"measurement": "LEL", "setting": "[11]; [25]", "value": 1.5, "unit": "mg/kg-day"}, {"measurement": "NOEL", "setting": "[11]; [25]", "value": 0.5, "unit": "mg/kg-day"}, {"measurement": "NOAEL", "setting": "[20]", "value": 1, "unit": "mg/kg-day"}, {"measurement": "LOEL", "setting": "[21]; chronic", "value": 1, "unit": "mg/kg-day"}, {"measurement": "LOEL", "setting": "[21]", "value": 1, "unit": "mg/kg-day"}, {"measurement": "NOEL", "setting": "[22]; neurotoxicity", "value": 1, "unit": "mg/kg-day"}, {"measurement": "NOEL", "setting": "[22]; short-term", "value": 1, "unit": "mg/kg-day"}]}, {"compound": "Cc1ccc(O)cc1", "note": "[p-Cresol]", "values": [{"measurement": "NOAEL", "setting": "[1]; short-term, duration: 28 days, diet, Fischer 344, Clinical Observation: Hunched posture Rough hair coat + Body Weight Changes: Mean body weight decrease + Food Consumption: decrease + …", "value": 1000, "unit": "ppm"}, {"measurement": "NOAEL", "setting": "[1]; subchronic, duration: 13 weeks, gavage, Sprague-Dawley, Deaths + Clinical Observation: Lethargy Tremors Convulsions Coma: + Body Weight Changes: Mean body weight decrease, Body weight gain …", "value": 50, "unit": "mg/kg-day"}, {"measurement": "NOAEL", "setting": "[23]", "value": 5, "unit": "mg/kg-day"}]}]}
